Legend:
[1] = biological target: Sigma non-opioid intracellular receptor 1 (Cavia porcellus) (UniProt Q60492); test: Binding affinity against sigma-1 receptor in guinea pig brain using [3H](+)-pentazocine as radioligand.
[2] = biological target: Sigma non-opioid intracellular receptor 1 (Cavia porcellus) (UniProt Q60492); test: Binding affinity against sigma-1 receptor in guinea pig brain using [3H](+)-pentazocine as radioligand

Sequence of Sigma non-opioid intracellular receptor 1 (Cavia porcellus) (Q60492 whole entry, looked up): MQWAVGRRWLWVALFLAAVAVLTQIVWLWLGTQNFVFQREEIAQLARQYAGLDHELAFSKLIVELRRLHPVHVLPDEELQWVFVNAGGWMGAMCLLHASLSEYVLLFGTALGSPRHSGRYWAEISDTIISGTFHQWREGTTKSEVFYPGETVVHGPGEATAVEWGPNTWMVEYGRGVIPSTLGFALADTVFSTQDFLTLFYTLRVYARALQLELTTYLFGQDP

With `O=C(NC1CCN(Cc2ccccc2)CC1)c1ccccc1I` [N-(1-Benzyl-piperidin-4-yl)-2-iodo-benzamide] the Ki [1] was 1.64 nM.

For `O=C(NC1CCN(Cc2ccccc2)CC1)c1cccc(I)c1` [N-(1-Benzyl-piperidin-4-yl)-3-iodo-benzamide], the Ki [2] was 3.02 nM.

Reference: BindingDB's records for doi:10.1021/jm00038a002 (George Washington University Medical Center, 1994)
